The text below walks through data of patent publication US20210128566A1, “NOVEL FUNCTIONALIZED PURINE-2,6-DIONES AND THEIR USE IN MEDICINE” (THOMAS HELLEDAYS STIFTELSE FÖR MEDICINSK FORSKNING, priority 2017, published 2021).

SMILES strings stand for the structures. pIC50: −log10 of the molar value.

This test has as its target recombinant human NUDT5 (Homo sapiens, UniProt Q9UKK9). The experiment in a line: NUDT5 inhibitor activity by malachite green reporter assay. The class given is biochemical. To be noted: 6 nM NUDT5, 50 μM ADP-Ribose, 15 minutes at room temperature. As to the method:
NUDT5 inhibitors were evaluated using a coupled enzymatic assay with detection of inorganic phosphate (Pi) using the malachite green assay. Following enzymatic hydrolysis of ADP-Ribose (Sigma-Aldrich A0572) by NUDT5, to yield AMP and ribose-5-phosphate, the latter product is continuously processed by a significant excess of alkaline phosphatase (Sigma-Aldrich, P0114). Formation of Pi is quantified based on the green complex (that absorbs at 630 nm) formed between malachite green and molybdate according to published procedure (Baykov, A. A., Evtushenko, O. A. and Avaeva, S. M., Anal Biochem, 171, 266-270 (1988)). Assay buffer consisted of 10 mM Tris-acetate at pH 8.0, 40 mM sodium chloride, 10 mM magnesium acetate, 0.005% Tween-20 and 1 mM dithiothreitol (DTT). The final conditions consisted of 6 nM recombinant human NUDT5, 50 μM ADP-Ribose and 10 U/ml of calf intestine alkaline phosphatase. The plates with compounds, enzymes and substrate were incubated at room temperature for 15 minutes, after which the reaction was terminated and the signal developed by the addition of the malachite green reagent using a MultiDrop (Thermo Scientific). Following vigorous shaking on plate shakers for a minimum of eight minutes the absorbance was read in a microplate reader (HidexSense) using a filter at 630 nm and a read time of 0.1 s per well. Inhibitors were used in dilutions from 100 μM to 1.7 nM in 3-fold dilution steps. Experiments were run in duplicate and confirmed in two independent experiments. IC50 values were determined by curve fitting using ExcelFit.
In general terms: A reporter such as luciferase makes a cellular process visible.

By pIC50 is commonly meant the negative decadic logarithm of the IC50, by convention in mol/L. Turning to `Cn1c(=O)c2c(nc(N3CCCC(F)C3)n2Cc2nnc(-c3ccc(Cl)c(Cl)c3)o2)n(C)c1=O` (centres unmarked) [Example 41, 7-{[5-(3,4-dichlorophenyl)-1,3,4-oxadiazol-2-yl]methyl}-8-(3-fluoropiperidin-1-yl)-1,3-dimethyl-2,3,6,7-tetrahydro-1H-purine-2,6-dione], the pIC50 (Table 3) was 7.62. Turning to `Cn1c(=O)c2c(nc(NC3CC3)n2Cc2nnc(-c3ccc(Cl)c(Cl)c3)o2)n(C)c1=O` [Example 42, 8-(cyclopropylamino)-7-{[5-(3,4-dichlorophenyl)-1,3,4-oxadiazol-2-yl]methyl}-1,3-dimethyl-2,3,6,7-tetrahydro-1H-purine-2,6-dione], under “Table 3”, the pIC50 is 7.58.

Take `COC1CCN(c2nc3c(c(=O)n(C)c(=O)n3C)n2Cc2nnc(-c3ccc(Cl)c(Cl)c3)o2)CC1` [Example 43, 7-{[5-(3,4-dichlorophenyl)-1,3,4-oxadiazol-2-yl]methyl}-8-(4-methoxypiperidin-1-yl)-1,3-dimethyl-2,3,6,7-tetrahydro-1H-purine-2,6-dione]: the pIC50 (Table 3) was 7.57. The same measure, in the same setting: as for `Cn1c(=O)c2c(nc(N3CCCC(O)C3)n2Cc2nnc(-c3ccc(Cl)c(Cl)c3)o2)n(C)c1=O` (centres unmarked) [Example 44, 7-{[5-(3,4-dichlorophenyl)-1,3,4-oxadiazol-2-yl]methyl}-8-(3-hydroxypiperidin-1-yl)-1,3-dimethyl-2,3,6,7-tetrahydro-1H-purine-2,6-dione], the figure is 7.67.

`CN(C)C1CCN(c2nc3c(c(=O)n(C)c(=O)n3C)n2Cc2nnc(-c3ccc(Cl)c(Cl)c3)o2)CC1` [Example 45, 7-{[5-(3,4-dichlorophenyl)-1,3,4-oxadiazol-2-yl]methyl}-8-[4-(dimethylamino)piperidin-1-yl]-1,3-dimethyl-2,3,6,7-tetrahydro-1H-purine-2,6-dione]: under “Table 3”, the pIC50 was 7.83. On the same count and under the same terms, as for `C[C@H]1CN(c2nc3c(c(=O)n(C)c(=O)n3C)n2Cc2nnc(-c3ccc(Cl)c(Cl)c3)o2)CCN1` [Example 46, 7-{[5-(3,4-dichlorophenyl)-1,3,4-oxadiazol-2-yl]methyl}-1,3-dimethyl-8-[(3S)-3-methylpiperazin-1-yl]-2,3,6,7-tetrahydro-1H-purine-2,6-dione], the figure is 7.92. For the molecule `C[C@@H]1CN(c2nc3c(c(=O)n(C)c(=O)n3C)n2Cc2nnc(-c3ccc(Cl)c(Cl)c3)o2)CCN1` [Example 47, 7-{[5-(3,4-dichlorophenyl)-1,3,4-oxadiazol-2-yl]methyl}-1,3-dimethyl-8-[(3R)-3-methylpiperazin-1-yl]-2,3,6,7-tetrahydro-1H-purine-2,6-dione], the pIC50 (Table 3) is 7.92.

As to `Cc1cccc(-c2nnc(Cn3c(N(C)C)nc4c3c(=O)n(C)c(=O)n4C)o2)c1` [Example 48, 8-(dimethylamino)-1,3-dimethyl-7-{[5-(3-methylphenyl)-1,3,4-oxadiazol-2-yl]methyl}-2,3,6,7-tetrahydro-1H-purine-2,6-dione], under “Table 3”, the pIC50 is 7.16.

Turning to `CCCNc1nc2c(c(=O)n(C)c(=O)n2C)n1Cc1nnc(-c2cccc(C)c2)o1` [Example 49, 1,3-dimethyl-7-{[5-(3-methylphenyl)-1,3,4-oxadiazol-2-yl]methyl}-8-(propylamino)-2,3,6,7-tetrahydro-1H-purine-2,6-dione], under “Table 3”, the pIC50 is 6.45. On the same count and under the same terms, as for `Cc1cccc(-c2nnc(Cn3c(NCc4ccccc4)nc4c3c(=O)n(C)c(=O)n4C)o2)c1` [Example 50, 8-(benzylamino)-1,3-dimethyl-7-{[5-(3-methylphenyl)-1,3,4-oxadiazo-2-yl]methyl}-2,3,6,7-tetrahydro-1H-purine-2,6-dione], the figure is 6.84.

On to `Cc1cccc(-c2nnc(Cn3c(N4CCN(C)CC4)nc4c3c(=O)n(C)c(=O)n4C)o2)c1` [Example 51, 1,3-dimethyl-7-{[5-(3-methylphenyl)-1,3,4-oxadiazol-2-yl]methyl}-8-(4-methylpiperazin-1-yl)-2,3,6,7-tetrahydro-1H-purine-2,6-dione], for which the pIC50 (Table 3) was 7.50. Still for that read-out and setting: in the case of `COc1nc2c(c(=O)n(C)c(=O)n2C)n1Cc1nnc(-c2cccc(C)c2)o1` [Example 52, 8-methoxy-1,3-dimethyl-7-{[5-(3-methylphenyl)-1,3,4-oxadiazol-2-yl]methyl}-2,3,6,7-tetrahydro-1H-purine-2,6-dione] it was 6.42; in that of `CCCCCCN1CCN(c2nc3c(c(=O)n(C)c(=O)n3C)n2Cc2nnc(-c3cccc(C)c3)o2)CC1` [Example 53, 8-(4-hexylpiperazin-1-yl)-1,3-dimethyl-7-{[5-(3-methylphenyl)-1,3,4-oxadiazol-2-yl]methyl}-2,3,6,7-tetrahydro-1H-purine-2,6-dione], 6.09. Still for that read-out and setting: in the case of `CCCCN1CCN(c2nc3c(c(=O)n(C)c(=O)n3C)n2Cc2nnc(-c3cccc(C)c3)o2)CC1` [Example 54, 8-(4-butylpiperazin-1-yl)-1,3-dimethyl-7-{[5-(3-methylphenyl)-1,3,4-oxadiazol-2-yl]methyl}-2,3,6,7-tetrahydro-1H-purine-2,6-dione] it was less than 6.00; in that of `CCN1CCN(c2nc3c(c(=O)n(C)c(=O)n3C)n2Cc2nnc(-c3cccc(C)c3)o2)CC1` [Example 55, 8-(4-ethylpiperazin-1-yl)-1,3-dimethyl-7-{[5-(3-methylphenyl)-1,3,4-oxadiazol-2-yl]methyl}-2,3,6,7-tetrahydro-1H-purine-2,6-dione], 6.66; in that of `Cc1cccc(-c2nnc(Cn3c(N4CCN(CCO)CC4)nc4c3c(=O)n(C)c(=O)n4C)o2)c1` [Example 56, 8-[4-(2-hydroxyethyl)piperazin-1-yl]-1,3-dimethyl-7-{[5-(3-methylphenyl)-1,3,4-oxadiazol-2-yl]methyl}-2,3,6,7-tetrahydro-1H-purine-2,6-dione], 6.04.

For the molecule `COCCN1CCN(c2nc3c(c(=O)n(C)c(=O)n3C)n2Cc2nnc(-c3cccc(C)c3)o2)CC1` [Example 57, 8-[4-(2-methoxyethyl)piperazin-1-yl]-1,3-dimethyl-7-{[5-(3-methylphenyl)-1,3,4-oxadiazol-2-yl]methyl}-2,3,6,7-tetrahydro-1H-purine-2,6-dione], the pIC50 (Table 3) was less than 6.00. On the same count and under the same terms, as for `Cc1cccc(-c2nnc(Cn3c(N4CCN(c5ccccc5)CC4)nc4c3c(=O)n(C)c(=O)n4C)o2)c1` [Example 58, 1,3-dimethyl-7-{[5-(3-methylphenyl)-1,3,4-oxadiazol-2-yl]methyl}-8-(4-phenylpiperazin-1-yl)-2,3,6,7-tetrahydro-1H-purine-2,6-dione], the figure is less than 6.00; as for `Cc1cccc(-c2nnc(Cn3c(N4CCN(C5CCCCC5)CC4)nc4c3c(=O)n(C)c(=O)n4C)o2)c1` [Example 59, 8-(4-cyclohexylpiperazin-1-yl)-1,3-dimethyl-7-{[5-(3-methylphenyl)-1,3,4-oxadiazol-2-yl]methyl}-2,3,6,7-tetrahydro-1H-purine-2,6-dione], less than 6.00; as for `Cc1nc2c(c(=O)n(C)c(=O)n2C)n1Cc1nnc(-c2ccc(Cl)c(Cl)c2)o1` [Example 60, 7-{[5-(3,4-dichlorophenyl)-1,3,4-oxadiazol-2-yl]methyl}-1,3,8-trimethyl-2,3,6,7-tetrahydro-1H-purine-2,6-dione], 7.55. Still for that read-out and setting: in the case of `CCCc1nc2c(c(=O)n(C)c(=O)n2C)n1Cc1nnc(-c2ccc(Cl)c(Cl)c2)o1` [Example 61, 7-{[5-(3,4-dichlorophenyl)-1,3,4-oxadiazol-2-yl]methyl}-1,3-dimethyl-8-propyl-2,3,6,7-tetrahydro-1H-purine-2,6-dione] it was 6.61; in that of `CC(C)c1nc2c(c(=O)n(C)c(=O)n2C)n1Cc1nnc(-c2ccc(Cl)c(Cl)c2)o1` [Example 62, 7-{[5-(3,4-dichlorophenyl)-1,3,4-oxadiazol-2-yl]methyl}-1,3-dimethyl-8-(propan-2-yl)-2,3,6,7-tetrahydro-1H-purine-2,6-dione], less than 6.00. The same measure, in the same setting: in the case of `Cn1c(=O)c2c(nc(Cc3ccccc3)n2Cc2nnc(-c3ccc(Cl)c(Cl)c3)o2)n(C)c1=O` [Example 63, 8-benzyl-7-{[5-(3,4-dichlorophenyl)-1,3,4-oxadiazol-2-yl]methyl}-1,3-dimethyl-2,3,6,7-tetrahydro-1H-purine-2,6-dione] it was less than 6.00. In the case of `Cn1c(=O)c2c(nc(N3CCN(CCNC(=O)OC(C)(C)C)CC3)n2Cc2nnc(-c3ccc(Cl)c(Cl)c3)o2)n(C)c1=O` [Example 64, tert-butyl N-{2-[4-(7-{[5-(3,4-dichlorophenyl)-1,3,4-oxadiazol-2-yl]methyl}-1,3-dimethyl-2,6-dioxo-2,3,6,7-tetrahydro-1H-purin-8-yl)piperazin-1-yl]ethyl}carbamate], the pIC50 (Table 4) was 6.65. Consider `Cn1c(=O)c2c(nc(N3CCC(CNC(=O)OC(C)(C)C)CC3)n2Cc2nnc(-c3ccc(Cl)c(Cl)c3)o2)n(C)c1=O` [Example 65, tert-butyl N-{[1-(7-{[5-(3,4-dichlorophenyl)-1,3,4-oxadiazol-2-yl]methyl}-1,3-dimethyl-2,6-dioxo-2,3,6,7-tetrahydro-1H-purin-8-yl)piperidin-4-yl]methyl}carbamate], for which, for the setting “Table 4”, the pIC50 was 7.47. For `Cn1c(=O)c2c(nc(-n3ccnc3)n2Cc2nnc(-c3ccc(Cl)c(Cl)c3)o2)n(C)c1=O` [Example 66, 7-{[5-(3,4-dichlorophenyl)-1,3,4-oxadiazol-2-yl]methyl}-8-(1H-imidazol-1-yl)-1,3-dimethyl-2,3,6,7-tetrahydro-1H-purine-2,6-dione], under “Table 4”, the pIC50 is 7.24.
